Data: article PMC11077868, “Rutinosides-derived from Sarocladium strictum 6-O-α-rhamnosyl-β-glucosidase show enhanced anti-tumoral activity in pancreatic cancer cells” (Microbial Cell Factories, 2024)

Key:
[1] = system: T1, 6-O-α-rhamnosyl-β-glucosidase (αRβG); assay: hydrolysis; product release, Michaelis-Menten fit; assay type: biochemical, Sarocladium strictum; conditions: 50 mM sodium phosphate pH 6.0, 60 °C, 1 h
T1 construct: native, purified from culture supernatant of S. strictum; 99 kDa by SDS-PAGE; tryptic peptide TIHETYLAPWYDGVK matched to a 755-residue putative glycoside hydrolase (21-residue signal peptide) of another strain, A. strictum DS1bioAY4a, JGI ID 1029425

[2] = system: T1, 6-O-α-rhamnosyl-β-glucosidase (αRβG); assay: hydrolysis; reducing sugars by […],4-dinitrosalicylic acid, Michaelis-Menten fit; assay type: biochemical, Sarocladium strictum; conditions: 50 mM sodium phosphate pH 6.0, 60 °C, 1 h

Row | Compound | Km [1] [µM] | Km [2] [µM]
1 | C[C@@H]1O[C@@H](OC[C@H]2O[C@@H](Oc3c(-c4ccc(O)c(O)c4)oc4cc(O)cc(O)c4c3=O)[C@H](O)[C@@H](O)[C@@H]2O)[C@H](O)[C@H](O)[C@H]1O [rutin] | 473 ± 4 | 
2 | COc1ccc([C@@H]2CC(=O)c3c(O)cc(O[C@@H]4O[C@H](CO[C@@H]5O[C@@H](C)[C@H](O)[C@@H](O)[C@H]5O)[C@@H](O)[C@H](O)[C@H]4O)cc3O2)cc1O [hesperidin] |  | 700 ± 120
